US9717748B2, “Compositions and methods for treating an infection” (CMPD LICENSING, LLC, priority 2015, dated 2017)
Like-named read-outs stand apart in the source and are kept apart here.

Key:
Haemophilus ducreyi = test: Expected efficacy of antibiotic agents; conditions: Gram: neg
[1] = test system: Viridans group streptococci; test: Expected efficacy of antibiotic agents; conditions: Gram: pos
Pseudomonas fluorescens = test: Expected efficacy of antibiotic agents; conditions: Gram: neg
Klebsiella oxytoca = test: Expected efficacy of antibiotic agents; conditions: Gram: neg
Bordetella pertussis = test: Expected efficacy of antibiotic agents; conditions: Gram: neg
Enterococcus faecium = test: Expected efficacy of antibiotic agents; conditions: Gram: pos
Acinetobacter lwoffii = test: Expected efficacy of antibiotic agents; conditions: Gram: neg
[2] = test system: Corynebacterium urealyticum; test: Expected efficacy of antibiotic agents; conditions: Gram: pos
Shigella dysenteriae = test: Expected efficacy of antibiotic agents; conditions: Gram: neg
Shigella flexneri = test: Expected efficacy of antibiotic agents; conditions: Gram: neg
Bartonella bacilliformis = test: Expected efficacy of antibiotic agents; conditions: Gram: neg
Neisseria meningitidis = test: Expected efficacy of antibiotic agents; conditions: Gram: neg
Corynebacterium jeikeium = test: Expected efficacy of antibiotic agents; conditions: Gram: pos
Escherichia coli = test: Expected efficacy of antibiotic agents; conditions: Gram: neg
Mycoplasma pneumoniae = test: Expected efficacy of antibiotic agents; conditions: Gram: n/a
Chlamydia pneumoniae = test: Expected efficacy of antibiotic agents; conditions: Gram: n/a
Salmonella typhi = test: Expected efficacy of antibiotic agents; conditions: Gram: neg
[3] = test system: Staphylococcus epidermidis; test: Expected efficacy of antibiotic agents; conditions: Gram: pos
Providencia rettgeri = test: Expected efficacy of antibiotic agents; conditions: Gram: neg
Bacteroides fragilis = test: Expected efficacy of antibiotic agents; conditions: Gram: anaer
Vibrio cholerae = test: Expected efficacy of antibiotic agents; conditions: Gram: neg
[4] = test system: Acinetobacter calcoaceticus; test: Expected efficacy of antibiotic agents; conditions: Gram: neg
[5] = test system: Haemophilus parainfluenzae; test: Expected efficacy of antibiotic agents; conditions: Gram: neg
Proteus vulgaris = test: Expected efficacy of antibiotic agents; conditions: Gram: neg
Serratia marcescens = test: Expected efficacy of antibiotic agents; conditions: Gram: neg
Shigella sonnei = test: Expected efficacy of antibiotic agents; conditions: Gram: neg
Shigella boydii = test: Expected efficacy of antibiotic agents; conditions: Gram: neg
Neisseria gonorrhoeae = test: Expected efficacy of antibiotic agents; conditions: Gram: neg
Peptostreptococcus = test: Expected efficacy of antibiotic agents; conditions: Gram: pos
Providencia stuartii = test: Expected efficacy of antibiotic agents; conditions: Gram: neg
Acinetobacter baumannii = test: Expected efficacy of antibiotic agents; conditions: Gram: neg
Campylobacter jejuni = test: Expected efficacy of antibiotic agents; conditions: Gram: neg
[6] = test system: Klebsiella (Calymmato-bacterium) granulomatis; test: Expected efficacy of antibiotic agents; conditions: Gram: neg
Citrobacter diversus = test: Expected efficacy of antibiotic agents; conditions: Gram: neg
Enterobacter aerogenes = test: Expected efficacy of antibiotic agents; conditions: Gram: neg
Klebsiella pneumoniae = test: Expected efficacy of antibiotic agents; conditions: Gram: neg
Pseudomonas aeruginosa = test: Expected efficacy of antibiotic agents; conditions: Gram: neg
Diphtheroids = test: Expected efficacy of antibiotic agents; conditions: Gram: pos
Morganella morganii = test: Expected efficacy of antibiotic agents; conditions: Gram: neg
Chlamydia trachomatis = test: Expected efficacy of antibiotic agents; conditions: Gram: n/a
Enterobacter cloacae = test: Expected efficacy of antibiotic agents; conditions: Gram: neg
Enterobacter sakazakii = test: Expected efficacy of antibiotic agents; conditions: Gram: neg
Proteus mirabilis = test: Expected efficacy of antibiotic agents; conditions: Gram: neg
Haemophilus influenzae = test: Expected efficacy of antibiotic agents; conditions: Gram: neg
Moraxella catarrhalis = test: Expected efficacy of antibiotic agents; conditions: Gram: neg
Citrobacter freundii = test: Expected efficacy of antibiotic agents; conditions: Gram: neg
Streptococcus agalactiae = test: Expected efficacy of antibiotic agents; conditions: Gram: pos
[7] = test system: Staphylococcus aureus (MSSA); test: Expected efficacy of antibiotic agents; conditions: Gram: pos
Clostridium difficile = test: Expected efficacy of antibiotic agents; conditions: Gram: anaer
Streptococcus pyogenes = test: Expected efficacy of antibiotic agents; conditions: Gram: pos
[8] = test system: Methicillin resistant staphaureus (MRSA); test: Expected efficacy of antibiotic agents; conditions: Gram: pos
Enterococcus faecalis = test: Expected efficacy of antibiotic agents; conditions: Gram: pos
Streptococcus pneumoniae = test: Expected efficacy of antibiotic agents; conditions: Gram: pos

CN[C@H](CC(C)C)C(=O)N[C@H]1C(=O)N[C@@H](CC(N)=O)C(=O)N[C@H]2C(=O)N[C@H]3C(=O)N[C@H](C(=O)N[C@H](C(=O)O)c4cc(O)cc(O)c4-c4cc3ccc4O)[C@H](O)c3ccc(c(Cl)c3)Oc3cc2cc(c3O[C@@H]2O[C@H](CO)[C@@H](O)[C@H](O)[C@H]2O[C@H]2C[C@](C)(N)[C@H](O)[C@H](C)O2)Oc2ccc(cc2Cl)[C@H]1O [Vancomycin]
Expected efficacy against Haemophilus ducreyi (Haemophilus ducreyi): no | Expected efficacy against Viridans group streptococci [1]: yes | Expected efficacy against Pseudomonas fluorescens (Pseudomonas fluorescens): no | Expected efficacy against Klebsiella oxytoca (Klebsiella oxytoca): no | Expected efficacy against Bordetella pertussis (Bordetella pertussis): no | Expected efficacy against Enterococcus faecium (Enterococcus faecium): yes, not VRE | Expected efficacy against Acinetobacter lwoffii (Acinetobacter lwoffii): no | Expected efficacy against Corynebacterium urealyticum [2]: yes | Expected efficacy against Chlamydia psittaci (Chlamydia psittaci): no | Expected efficacy against Shigella dysenteriae (Shigella dysenteriae): no | Expected efficacy against Shigella flexneri (Shigella flexneri): no | Expected efficacy against Bartonella bacilliformis (Bartonella bacilliformis): no | Expected efficacy against Neisseria meningitidis (Neisseria meningitidis): no | Expected efficacy against Corynebacterium jeikeium (Corynebacterium jeikeium): yes | Expected efficacy against Escherichia coli (Escherichia coli): no | Expected efficacy against Mycoplasma pneumoniae (Mycoplasma pneumoniae): no | Expected efficacy against Chlamydia pneumoniae (Chlamydia pneumoniae): no | Expected efficacy against Salmonella typhi (Salmonella typhi): no | Expected efficacy against Staphylococcus epidermidis [3]: yes | Expected efficacy against Providencia rettgeri (Providencia rettgeri): no | Expected efficacy against Bacteroides fragilis (Bacteroides fragilis): no | Expected efficacy against Vibrio cholerae (Vibrio cholerae): no | Expected efficacy against Acinetobacter calcoaceticus [4]: no | Expected efficacy against Haemophilus parainfluenzae [5]: no | Expected efficacy against Clostridium perfringens (Clostridium perfringens): no | Expected efficacy against Proteus vulgaris (Proteus vulgaris): no | Expected efficacy against Serratia marcescens (Serratia marcescens): no | Expected efficacy against Shigella sonnei (Shigella sonnei): no | Expected efficacy against Shigella boydii (Shigella boydii): no | Expected efficacy against Neisseria gonorrhoeae (Neisseria gonorrhoeae): no | Expected efficacy against Peptostreptococcus (Peptostreptococcus): yes | Expected efficacy against Legionella pneumophila (Legionella pneumophila): no | Expected efficacy against Providencia stuartii (Providencia stuartii): no | Expected efficacy against Acinetobacter baumannii (Acinetobacter baumannii): no | Expected efficacy against Campylobacter jejuni (Campylobacter jejuni): no | Expected efficacy against Klebsiella (Calymmato-bacterium) granulomatis [6]: no | Expected efficacy against Citrobacter diversus (Citrobacter diversus): no | Expected efficacy against Rickettsiae (Rickettsiae): no | Expected efficacy against Enterobacter aerogenes (Enterobacter aerogenes): no | Expected efficacy against Klebsiella pneumoniae (Klebsiella pneumoniae): no | Expected efficacy against Pseudomonas aeruginosa (Pseudomonas aeruginosa): no | Expected efficacy against Francisella tularensis (Francisella tularensis): no | Expected efficacy against Diphtheroids (Diphtheroids): yes | Expected efficacy against Morganella morganii (Morganella morganii): no | Expected efficacy against Chlamydia trachomatis (Chlamydia trachomatis): no | Expected efficacy against Enterobacter cloacae (Enterobacter cloacae): no | Expected efficacy against Yersinia pestis (Yersinia pestis): no | Expected efficacy against Enterobacter sakazakii (Enterobacter sakazakii): no | Expected efficacy against Proteus mirabilis (Proteus mirabilis): no | Expected efficacy against Haemophilus influenzae (Haemophilus influenzae): no | Expected efficacy against Moraxella catarrhalis (Moraxella catarrhalis): no | Expected efficacy against Citrobacter freundii (Citrobacter freundii): no | Expected efficacy against Streptococcus agalactiae (Streptococcus agalactiae): yes | Expected efficacy against Staphylococcus aureus (MSSA) [7]: yes | Expected efficacy against Brucella species (Brucella species): no | Expected efficacy against Clostridium difficile (Clostridium difficile): yes | Expected efficacy against Streptococcus pyogenes (Streptococcus pyogenes): yes

Colistimethate
Expected efficacy against Methicillin resistant staphaureus (MRSA) [8]: no | Expected efficacy against Viridans group streptococci [1]: no | Expected efficacy against Enterococcus faecalis (Enterococcus faecalis): no | Expected efficacy against Bordetella pertussis (Bordetella pertussis): no | Expected efficacy against Enterococcus faecium (Enterococcus faecium): no | Expected efficacy against Corynebacterium urealyticum [2]: no | Expected efficacy against Chlamydia psittaci (Chlamydia psittaci; Gram: n/a): no | Expected efficacy against Neisseria meningitidis (Neisseria meningitidis): no | Expected efficacy against Corynebacterium jeikeium (Corynebacterium jeikeium): no | Expected efficacy against Mycoplasma pneumoniae (Mycoplasma pneumoniae): no | Expected efficacy against Chlamydia pneumoniae (Chlamydia pneumoniae): no | Expected efficacy against Staphylococcus epidermidis [3]: no | Expected efficacy against Providencia rettgeri (Providencia rettgeri): no | Expected efficacy against Bacteroides fragilis (Bacteroides fragilis): no | Expected efficacy against Vibrio cholerae (Vibrio cholerae): no | Expected efficacy against Haemophilus parainfluenzae [5]: no | Expected efficacy against Proteus vulgaris (Proteus vulgaris): no | Expected efficacy against Serratia marcescens (Serratia marcescens): no | Expected efficacy against Neisseria gonorrhoeae (Neisseria gonorrhoeae): no | Expected efficacy against Peptostreptococcus (Peptostreptococcus): no | Expected efficacy against Legionella pneumophila (Legionella pneumophila; Gram: neg): no | Expected efficacy against Providencia stuartii (Providencia stuartii): no | Expected efficacy against Klebsiella (Calymmato-bacterium) granulomatis [6]: yes | Expected efficacy against Klebsiella pneumoniae (Klebsiella pneumoniae): yes | Expected efficacy against Pseudomonas aeruginosa (Pseudomonas aeruginosa): yes | Expected efficacy against Diphtheroids (Diphtheroids): no | Expected efficacy against Chlamydia trachomatis (Chlamydia trachomatis): no | Expected efficacy against Enterobacter cloacae (Enterobacter cloacae): yes | Expected efficacy against Enterobacter sakazakii (Enterobacter sakazakii): yes | Expected efficacy against Proteus mirabilis (Proteus mirabilis): no | Expected efficacy against Moraxella catarrhalis (Moraxella catarrhalis): no | Expected efficacy against Streptococcus pneumoniae (Streptococcus pneumoniae): no | Expected efficacy against Streptococcus agalactiae (Streptococcus agalactiae): no | Expected efficacy against Staphylococcus aureus (MSSA) [7]: yes | Expected efficacy against Brucella species (Brucella species; Gram: neg): no | Expected efficacy against Clostridium difficile (Clostridium difficile): no | Expected efficacy against Streptococcus pyogenes (Streptococcus pyogenes): no

C/C(=C\C(=O)OCCCCCCCCC(=O)O)C[C@@H]1OC[C@H](C[C@@H]2O[C@H]2[C@@H](C)[C@H](C)O)[C@@H](O)[C@H]1O [Bactroban]
Expected efficacy against Haemophilus ducreyi (Haemophilus ducreyi): no | Expected efficacy against Pseudomonas fluorescens (Pseudomonas fluorescens): no | Expected efficacy against Klebsiella oxytoca (Klebsiella oxytoca): no | Expected efficacy against Bordetella pertussis (Bordetella pertussis): no | Expected efficacy against Acinetobacter lwoffii (Acinetobacter lwoffii): no | Expected efficacy against Corynebacterium urealyticum [2]: no | Expected efficacy against Shigella dysenteriae (Shigella dysenteriae): no | Expected efficacy against Shigella flexneri (Shigella flexneri): no | Expected efficacy against Bartonella bacilliformis (Bartonella bacilliformis): no | Expected efficacy against Neisseria meningitidis (Neisseria meningitidis): no | Expected efficacy against Corynebacterium jeikeium (Corynebacterium jeikeium): no | Expected efficacy against Escherichia coli (Escherichia coli): no | Expected efficacy against Salmonella typhi (Salmonella typhi): no | Expected efficacy against Providencia rettgeri (Providencia rettgeri): no | Expected efficacy against Vibrio cholerae (Vibrio cholerae): no | Expected efficacy against Acinetobacter calcoaceticus [4]: no | Expected efficacy against Clostridium perfringens (Clostridium perfringens; Gram: anaer): no | Expected efficacy against Proteus vulgaris (Proteus vulgaris): no | Expected efficacy against Serratia marcescens (Serratia marcescens): no | Expected efficacy against Shigella sonnei (Shigella sonnei): no | Expected efficacy against Shigella boydii (Shigella boydii): no | Expected efficacy against Neisseria gonorrhoeae (Neisseria gonorrhoeae): no | Expected efficacy against Legionella pneumophila (Legionella pneumophila; Gram: neg): no | Expected efficacy against Providencia stuartii (Providencia stuartii): no | Expected efficacy against Acinetobacter baumannii (Acinetobacter baumannii): no | Expected efficacy against Campylobacter jejuni (Campylobacter jejuni): no | Expected efficacy against Klebsiella (Calymmato-bacterium) granulomatis [6]: no | Expected efficacy against Citrobacter diversus (Citrobacter diversus): no | Expected efficacy against Rickettsiae (Rickettsiae; Gram: neg): no | Expected efficacy against Enterobacter aerogenes (Enterobacter aerogenes): no | Expected efficacy against Klebsiella pneumoniae (Klebsiella pneumoniae): no | Expected efficacy against Pseudomonas aeruginosa (Pseudomonas aeruginosa): no | Expected efficacy against Francisella tularensis (Francisella tularensis; Gram: neg): no | Expected efficacy against Morganella morganii (Morganella morganii): no | Expected efficacy against Enterobacter cloacae (Enterobacter cloacae): no | Expected efficacy against Yersinia pestis (Yersinia pestis; Gram: neg): no | Expected efficacy against Enterobacter sakazakii (Enterobacter sakazakii): no | Expected efficacy against Proteus mirabilis (Proteus mirabilis): no | Expected efficacy against Haemophilus influenzae (Haemophilus influenzae): no | Expected efficacy against Moraxella catarrhalis (Moraxella catarrhalis): no | Expected efficacy against Citrobacter freundii (Citrobacter freundii): no | Expected efficacy against Brucella species (Brucella species; Gram: neg): no
